# Patent US20190282550A1, “METHOD OF TREATMENT” (The University of Melbourne, priority 2016, published 2019)
# Tests used:
# HTR8 [1] = assay: xCELLigence placenta cell proliferation; assay type: cell-based; conditions: for proliferation at 48 h post plating: compared to control
# Experimental: The effect of vinorelbine on placenta cell (HTR8) proliferation was assessed using xCELLigence (C).
# placenta cells = assay: Apoptosis versus necrosis in placenta cells; assay type: cell-based
# Experimental: Apoptosis incites less of an inflammatory response that may otherwise injure local tissues. In this Example, the number of apoptotic cells after treatment with vinorelbine is assessed.
# HTR8 [2] = assay: MTS cell viability assay, HTR8 placenta cell line; assay type: cell-based
# Experimental: (§1) The ability for vinorelbine to reduce placenta cell viability was assessed in two placenta cell lines (A;HTR8, B; JEG3) using a MTS cell viability assay.
# human Fallopian tubes = assay: Human Fallopian tubes treated ex vivo, western blot of apoptotic markers
# Text: Fallopian tube cells are obtained from (non pregnant) women undergoing hysterectomy and explants prepared as previously published (Shaw et al. (2011) Am J Pathol 178(1):253-60). […] Investigators stain the explants with M30 antibody by immunohistochemistry (measures late apoptosis) and obtain tissue lysates and perform western blot to measure the following proteins involved in apoptosis (Elmore (2007) supra): Bcl-2, Bax, Bid and Bim and quantify by densiometric analysis.
# Human Fallopian tubes were obtained at hysterectomy (from women of child-bearing age).
# [3] = tested on: primary first trimester placenta cells; assay: MTS cell viability assay, primary first trimester placenta cells (FIG. 1); assay type: cell-based, human
# Experimental: For in vitro experiments, methotrexate and vinorelbine are administered at different doses (from 10 nM to 100,000 nM). When used, gefitinib is combined with methotrexate at 8 μM. Cells/tissues are treated for 24 hours and 48 hours. Methodology for the following standard techniques are: Tissue culture (Nilsson et al. (2013) Obstet Gynecol 122(4):737-44), RNA, qPCR, immunohistochemistry (Nilsson et al. (2013) supra; Onda et al. (2015) Hypertension:10.1161/hyptertensionaha.114.04781; Kaitu'u-Lino et al. Pregnancy Hypertension: An International Journal of Women's Cardiovascular Health 2014 placenta explants (Brownfoot et al. (2015) Hypertension), FACs sorting (Nilsson et al. (2013) supra), trophoblast purification ((Nilsson et al. (2013) supra; Onda et al. (2015) supra; Kaitu'u Lino et al. (2014) supra) and western blots (Onda et al. (2015) supra).
# First trimester placenta tissue are obtained from women who are undergoing a termination of pregnancy. Placenta cells are purified as previously described (Nilsson et al. (2013) supra). They are treated with different doses (10-100,000 nM) of vinorelbine, methotrexate, methotrexate+gefitinib, gefitinib alone (and vehicle control). Cell viability is measured by MTS assay (see FIG. 1). To compare the relative potencies, the EC50 is calculated for the drugs (dose that induces 50% cell death).
# VB doses were 10,000 times lower than MXT.
# [4] = Mouse fertility breeding experiments; conditions: 5 mg/kg intravenous to female mice 4 weeks prior to breeding
# Experimental: Vinorelbine is administered by tail vein injection to wild type swiss mice. The drug (or vehicle controls) is administered by tail vein twice weekly (i.e. approximately mirroring the frequency of dosing for the xenograft studies). The middle dose that was effective in regressing tumor size (2.5 mg/kg) is to be used. After one month the mice are paired for breeding. It is proposed to sacrifice mice at about day 19 of pregnancy.
# Parameters measured include 1) Number of fetuses' and implantations sites; 2) fetal crown rump length; 3) fetal weight; 4) placenta weights.
# HTR8 cells [5] = tested on: HTR8 cells
# placenta cells (JEG3) = assay: Mouse xenograft model, placenta cells (JEG3) grafted subcutaneously
# HTR8 cells [6] = assay: FACs analysis of cell cycle progression; assay type: cell-based; conditions: 1 μM and 10 μM
# Experimental: The effect of Vinorelbine on cell cycle progression in HTR8 cells was assessed using FACs analysis (FIGS. 8A through G). […] The proportion of cells in G1, S and G2 is graphically represented in n=3 replicates (D).
# JEG3 = assay: MTS cell viability assay, JEG3 placenta cell line; assay type: cell-based
# Experimental: as §1
# [7] = tested on: first trimester placenta explants; assay: First trimester placenta explants, M30 cytodeath immunohistochemistry; assay type: cell-based, human; conditions: compared to methotrexate±gefitinib
# Experimental: First trimester placenta explants are prepared and treated with the same drugs as above. After culture cells are fixed in paraformadehyde and immunohistochemistry staining performed with an M30 cytodeath antibody (detects apoptotic cell death). hCG secretion in to the cell culture media will be measured.
# [8] = oral, 60 mg/m^2 once a week; cited from earlier work
# [9] = western blot densitometry, n=3 tubes
# [10] = increasing doses, intravenously, vs. vehicle
smiles,measurement,setting,value
CN(Cc1cnc2nc(N)nc(N)c2n1)c1ccc(C(=O)N[C@@H](CCC(=O)O)C(=O)O)cc1 [methotrexate],proliferation at 48 h post plating,HTR8 [1],no significant effect
CCC1=C[C@@H]2CN(C1)Cc1c([nH]c3ccccc13)[C@@](C(=O)OC)(c1cc3c(cc1OC)N(C)[C@H]1[C@@](O)(C(=O)OC)[C@H](OC(C)=O)[C@]4(CC)C=CCN5CC[C@]31[C@@H]54)C2 [vinorelbine],mode of placenta cell death,placenta cells,mainly by apoptosis rather than necrosis
same,cell viability,HTR8 [2],significant dose dependent reduction in cell viability
same,markers of apoptosis in human Fallopian tubes,human Fallopian tubes; preliminary data,does not upregulate markers of apoptosis
same,BAX protein expression,human Fallopian tubes; [9],no effect
same,BCL 2 protein expression,human Fallopian tubes; [9],no effect
same,inducing death of primary first trimester placenta cells,[3]; compared to methotrexate±gefitinib,significantly more effective in inducing death
same,potency relative to methotrexate,[3]; placenta cell death,"1,000 to 10,000 times"
same,crown to rump length,[4],did not alter
same,fetal weight,[4],did not alter
same,fetal/placenta ratio,[4],did not alter
same,litter size,[4],did not alter
same,percentage of dead cells,HTR8 cells [5],No significant changes
same,percentage of live HTR8 cells,HTR8 cells [5],significantly reduced
same,percentage of apoptotic HTR8 cells,HTR8 cells [5]; Annexin V expression,significantly increased
same,serum human chorionic gonadotropin (hCG) levels,placenta cells (JEG3); [10],significantly reduced
same,tumor volume over time,placenta cells (JEG3); [10],dose dependently reduced tumor volume over time
same,tumor weight,placenta cells (JEG3); [10],significantly reduced tumor weight
same,regressing placenta cells in xenografted SCID mice,"placenta cells (JEG3); proposed, compared to methotrexate±gefitinib",more effective than methotrexate±gefitinib
same,cell cycle progression,HTR8 cells [6],"inhibits cell cycle progression, with cells arrested in the G2 phase of mitosis"
same,cells halted at G2,"HTR8 cells [6]; compared to control, n=3 replicates",significantly more cells halted at G2
same,cell viability,JEG3,significant dose dependent reduction in cell viability
same,proliferation at 48 h post plating,HTR8 [1],"proliferation was reduced at 1, 10 and 100 μM"
same,HTR8 proliferation,"HTR8 [1]; xCELLigence, over time",reduced HTR8 proliferation in a dose-dependent manner
same,M30 staining of placenta explants,[7],more intense M30 staining of placenta explants at a lower doses
same,neutropenia occurrence,[8],11%
